Reference: ChEMBL document CHEMBL1201862, “PubChem BioAssay data set” (2004)
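Tested at 5 concentrations; 48 h exposure; 96-well plates; endpoints linearly interpolated, else capped at highest concentration. GI50 marks 50% less growth.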 Activity calls are given as the source filed them. No stated cut-off is given here; in the data, active = GI50 up to about 1.1 µM and inactive = higher.

Key:
Test in all cases: NCI-60 cell line screen, 48 h
SK-MEL-5 = system: SK-MEL-5
CAKI-1 = system: CAKI-1
DU-145 = system: DU-145
T47D = system: T47D
HCC 2998 = system: HCC 2998
RPMI-8226 = system: RPMI-8226
SK-MEL-28 = system: SK-MEL-28
TK-10 = system: TK-10
UACC-257 = system: UACC-257
NCI-H23 = system: NCI-H23
Malme-3M = system: Malme-3M
PC-3 = system: PC-3
OVCAR-4 = system: OVCAR-4
NCI-H460 = system: NCI-H460
NCI/ADR-RES = system: NCI/ADR-RES
OVCAR-5 = system: OVCAR-5
SF-295 = system: SF-295
COLO 205 = system: COLO 205
UO-31 = system: UO-31
CCRF-CEM = system: CCRF-CEM
NCI-H522 = system: NCI-H522
HL-60 = system: HL-60
SK-OV-3 = system: SK-OV-3
EKVX = system: EKVX
MDA-MB-435 = system: MDA-MB-435
KM12 = system: KM12
ACHN = system: ACHN
SNB-75 = system: SNB-75
SF-539 = system: SF-539
786-0 = system: 786-0
SNB-19 = system: SNB-19
SR = system: SR
K562 = system: K562
U-251 = system: U-251
SK-MEL-2 = system: SK-MEL-2
MDA-N = system: MDA-N
A549 = system: A549
Hs-578T = system: Hs-578T
MOLT-4 = system: MOLT-4
RXF 393 = system: RXF 393
LOX IMVI = system: LOX IMVI
HCT-15 = system: HCT-15
IGROV-1 = system: IGROV-1
HCT-116 = system: HCT-116
MDA-MB-231 = system: MDA-MB-231
NCI-H226 = system: NCI-H226
SF-268 = system: SF-268
OVCAR-8 = system: OVCAR-8
HT-29 = system: HT-29
UACC-62 = system: UACC-62
HOP-62 = system: HOP-62
SW-620 = system: SW-620
SN12C = system: SN12C
A498 = system: A498
HOP-92 = system: HOP-92
M14 = system: M14
MCF7 = system: MCF7
OVCAR-3 = system: OVCAR-3

COC(=O)c1sc2nc(Nc3ccccc3)/c(=N\c3ccccc3)sc2c1C
GI50 (SK-MEL-5): 88.5 µM (inactive) | GI50 (CAKI-1): 58.6 µM (inactive) | GI50 (DU-145): > 100 µM (inactive) | GI50 (T47D): > 100 µM (inactive) | GI50 (HCC 2998): > 100 µM (inactive) | GI50 (RPMI-8226): > 100 µM (inactive) | GI50 (SK-MEL-28): > 100 µM (inactive) | GI50 (TK-10): 30.5 µM (inactive) | GI50 (UACC-257): > 100 µM (inactive) | GI50 (NCI-H23): 94.4 µM (inactive) | GI50 (Malme-3M): > 100 µM (inactive) | GI50 (PC-3): > 100 µM (inactive) | GI50 (OVCAR-4): 64.7 µM (inactive) | GI50 (NCI-H460): 45.4 µM (inactive) | GI50 (NCI/ADR-RES): 80.5 µM (inactive) | GI50 (OVCAR-5): > 100 µM (inactive) | GI50 (SF-295): 51.4 µM (inactive) | GI50 (COLO 205): > 100 µM (inactive) | GI50 (UO-31): > 100 µM (inactive) | GI50 (CCRF-CEM): > 100 µM (inactive) | GI50 (NCI-H522): 30.3 µM (inactive) | GI50 (HL-60): > 100 µM (inactive) | GI50 (SK-OV-3): 32.8 µM (inactive) | GI50 (EKVX): 59.6 µM (inactive) | GI50 (MDA-MB-435): > 100 µM (inactive) | GI50 (KM12): > 100 µM (inactive) | GI50 (ACHN): 32.7 µM (inactive) | GI50 (SNB-75): 25 µM (inactive) | GI50 (SF-539): 51.9 µM (inactive) | GI50 (786-0): 34.8 µM (inactive) | GI50 (SNB-19): 36.6 µM (inactive) | GI50 (SR): 47.6 µM (inactive) | GI50 (K562): > 100 µM (inactive) | GI50 (U-251): 48.6 µM (inactive) | GI50 (SK-MEL-2): 48.6 µM (inactive) | GI50 (MDA-N): 66.8 µM (inactive) | GI50 (A549): 65.8 µM (inactive) | GI50 (Hs-578T): 27.7 µM (inactive) | GI50 (MOLT-4): > 100 µM (inactive) | GI50 (RXF 393): 24.3 µM (inactive) | GI50 (LOX IMVI): > 100 µM (inactive) | GI50 (HCT-15): > 100 µM | GI50 (IGROV-1): 45.4 µM (inactive) | GI50 (HCT-116): 51.8 µM (inactive) | GI50 (MDA-MB-231): > 100 µM (inactive) | GI50 (NCI-H226): > 100 µM (inactive) | GI50 (SF-268): 57.3 µM (inactive) | GI50 (OVCAR-8): 64.1 µM (inactive) | GI50 (HT-29): > 100 µM (inactive) | GI50 (UACC-62): 35.6 µM (inactive) | GI50 (HOP-62): 49.8 µM (inactive) | GI50 (SW-620): > 100 µM (inactive) | GI50 (SN12C): 92.9 µM (inactive) | GI50 (A498): 53.7 µM (inactive) | GI50 (HOP-92): 31.3 µM (inactive)

CC1(C)CCOC(=O)C(Cl)CC1Cl (stereo not drawn)
GI50 (SK-MEL-5): > 100 µM (inactive) | GI50 (CAKI-1): > 100 µM (inactive) | GI50 (DU-145): > 100 µM (inactive) | GI50 (T47D): > 100 µM (inactive) | GI50 (HCC 2998): > 100 µM (inactive) | GI50 (M14): > 100 µM (inactive) | GI50 (SK-MEL-28): > 100 µM (inactive) | GI50 (TK-10): > 100 µM (inactive) | GI50 (UACC-257): > 100 µM (inactive) | GI50 (NCI-H23): > 100 µM (inactive) | GI50 (Malme-3M): > 100 µM (inactive) | GI50 (PC-3): > 100 µM (inactive) | GI50 (OVCAR-4): > 100 µM (inactive) | GI50 (MCF7): > 100 µM (inactive) | GI50 (NCI-H460): > 100 µM (inactive) | GI50 (NCI/ADR-RES): > 100 µM (inactive) | GI50 (OVCAR-5): > 100 µM (inactive) | GI50 (SF-295): > 100 µM (inactive) | GI50 (COLO 205): > 100 µM (inactive) | GI50 (CCRF-CEM): > 100 µM (inactive) | GI50 (NCI-H522): > 100 µM (inactive) | GI50 (SK-OV-3): > 100 µM (inactive) | GI50 (EKVX): > 100 µM (inactive) | GI50 (MDA-MB-435): > 100 µM (inactive) | GI50 (KM12): > 100 µM (inactive) | GI50 (ACHN): > 100 µM (inactive) | GI50 (SF-539): > 100 µM (inactive) | GI50 (786-0): > 100 µM (inactive) | GI50 (SNB-19): > 100 µM (inactive) | GI50 (SR): > 100 µM (inactive) | GI50 (K562): > 100 µM (inactive) | GI50 (U-251): > 100 µM (inactive) | GI50 (SK-MEL-2): > 100 µM (inactive) | GI50 (MDA-N): > 100 µM (inactive) | GI50 (A549): > 100 µM (inactive) | GI50 (Hs-578T): > 100 µM (inactive) | GI50 (MOLT-4): > 100 µM (inactive) | GI50 (RXF 393): > 100 µM (inactive) | GI50 (LOX IMVI): > 100 µM (inactive) | GI50 (HCT-15): > 100 µM | GI50 (IGROV-1): > 100 µM (inactive) | GI50 (HCT-116): > 100 µM (inactive) | GI50 (MDA-MB-231): > 100 µM (inactive) | GI50 (NCI-H226): > 100 µM (inactive) | GI50 (OVCAR-3): > 100 µM (inactive) | GI50 (SF-268): > 100 µM (inactive) | GI50 (OVCAR-8): > 100 µM (inactive) | GI50 (HT-29): > 100 µM (inactive) | GI50 (UACC-62): > 100 µM (inactive) | GI50 (HOP-62): > 100 µM (inactive) | GI50 (SW-620): > 100 µM (inactive) | GI50 (SN12C): > 100 µM (inactive) | GI50 (A498): > 100 µM (inactive)
